Read-outs that look alike come from different tables or passages of the source.
What was measured:
[1] = tested on: HeLa xenografts; assay: In vivo anti-tumour activity in mice xenograft model; design: species or system BALB/c Nude mice; details: 1 mg/kg intraperitoneal, 42 days, nude mice bearing HeLa xenografts
Protocol: The use of metal complexes or gold compounds in animal xenograft models has been previously described elsewhere for cervical cancer models or other tumour types. The efficacy of the newly synthesised novel gold compound in reducing tumour growth in cervical cancer models was tested as follows. […] Five-week-old female BALB/c Nude mice were used. HeLa tumour cells (5×10^6) resuspended in RPMI medium injected subcutaneously tumour cells in 100 μL of culture media using a 29-gauge insulin syringe into both ventral flanks, anterior to the hind leg. The mice were monitored twice daily for 48 hrs to determine if any unexpected adverse effects are observed. Tumours were allowed to establish to approximately 50 mm^3 (as determined using electronic callipers) and the mice were then randomly separated into three groups of 5.
From this stock solution, the final working concentrations for mice injections were prepared in PBS (Phosphate buffered saline, pH 7.4) with DMSO concentration not exceeding 3.6%.
Tumour volumes were measured 8 times during the 42-day period. All mice were culled after 42 days and the tumours were collected and weighed. All the animal experiments were performed in Biological Research Facility, Melbourne University according to the animal ethics number 1814422.

[2] = tested on: A2780Cis cisplatin resistant ovarian cancer cells; assay: Trypan blue assay, A2780Cis; assay type: cell-based
Protocol: (§1) A Trypan blue assay was conducted to determine the cytotoxicity of certain compounds of the invention towards cisplatin-sensitive (A2780) and -resistant (A2780Cis) ovarian, prostate (PC3) and colon (HT-29) cancer cells.
(§2) In order to determine the toxicity of the compounds, 5×10^4 cells per well were seeded into 24 well plates and allowed to grow for 24 hours. The cells were then treated with increasing concentrations of the compounds for 72 hours. […] The gold complexes were dissolved in DMSO immediately prior to the experiments (5 mM stock solutions). 0.25% DMSO in complete medium served as vehicle control. All treatments were performed using molar concentrations and each well received 1 mL of treatment in cell culture media (RPMI) containing 10% FBS and 1% penicillin and streptomycin. After 72 hours of treatment, the media was collected from each well in separate tubes in order to include dead cells in the cell count. Cells from the plate were removed using 200 μL of 0.25% Trypsin-EDTA for 3 minutes at 37° C. Trypsin was neutralised with the media originally removed from the cells and centrifuged at 1200 rpm for 5 minutes. The supernatant was discarded and the cells were resuspended in 100 μL of fresh complete media. From this, 20 μL of cell suspension was removed, mixed with an equal volume of Trypan Blue and the cells were counted using a haemocytometer.

[3] = tested on: A2780 ovarian cancer cells; assay: Trypan blue assay, A2780; assay type: cell-based
Protocol: as §1, §2

[4] = tested on: HT-29 colon cancer cells; assay: Trypan blue assay, HT-29; assay type: cell-based
Protocol: as §1, §2

[5] = tested on: cisplatin-resistant ovarian cancer cells (A2780Cis); assay: Dose dependent study, trypan blue assay, A2780Cis; assay type: cell-based; details: at 0.39 μM, 72 hours treatment
[6] = tested on: HeLa (cervical) cancer cells; assay: MTT assay (in vitro cytotoxicity), HeLa; assay type: cell-based; details: ratio to cisplatin
Protocol: (§3) For all the assays, unless otherwise mentioned, stock solutions of the metal compounds were freshly prepared in DMSO (10 mM) and 1% DMSO in complete medium was used as a control.
(§4) The MTT [3-(4,5-dimethylthiazol-2-yl)-2,5-diphenyltetrazolium bromide] assay is based on the conversion of a yellow coloured MTT solution to purple formazan crystals by the active mitochondrial dehydrogenases of viable cells. Thus, the intensity of the produced purple colour is proportional to the number of viable cells. The cells were seeded in 96 well plates depending on cellular doubling time and were treated with solutions of the metal compounds (100 μM, 10 μm, 1 μM, 0.1 μM, 0.01 μM) after overnight incubation. The cells were further incubated for 48 h and the medium containing the test compounds was removed before addition of 100 μL MTT solution (5 mg/mL) in serum-free medium. After 4 h incubation in the dark at 37° C., the excess MTT solution was removed from the wells and 100 μL of DMSO was added to each well to solubilise the formed formazan crystals. The absorbance of formazan solution from each well was recorded using a Spectramax micro titre plate reader at 570 and 630 nm. […] For all the assays, stock solutions of gold compounds were prepared in DMSO (10 mM) and the final treatment concentrations (100 μM-0.01 μM) were made in complete growth medium.

[7] = tested on: PC3 (prostate) cancer cells; assay: MTT assay (in vitro cytotoxicity), PC3; assay type: cell-based; details: ratio to cisplatin
Protocol: as §3, §4

[8] = tested on: HT-1080 (bone, fibrosarcoma) cancer cells; assay: MTT assay (in vitro cytotoxicity), HT-1080; assay type: cell-based; details: ratio to cisplatin
Protocol: as §3, §4

[9] = MTT assay (in vitro cytotoxicity), HeK-293; assay type: cell-based; details: human, HEK-293 (normal) embryonic kidney cells, 48 h incubation, mean ± SD of three experiments
Protocol: as §3, §4

[10] = tested on: PC3 prostate cancer cells; assay: Trypan blue assay, PC3; assay type: cell-based

## N.N.[Cl][Pt][Cl] [Cisplatin]
[1]; compared to solvent control
  tumour volume inhibition: 29%
[2]; Trypan blue, 72 hours treatment, read-out: In vitro cytotoxicity IC50, A2780Cis
  IC50: > 25000 nM
[3]; Trypan blue, 72 hours treatment, read-out: In vitro cytotoxicity IC50, A2780
  IC50: 1400 ± 130 nM
[4]; Trypan blue, 72 hours treatment, read-out: In vitro cytotoxicity IC50, HT-29
  IC50: > 25000 nM
[5]
  effect on cell viability: no significant effect

## S=P(c1ccccc1)(c1ccccc1)c1cccc[c]1[Au][PH]12CN3CN(CN(C3)C1)C2 [Compound 1, [Au(PTA){κC-2-C6H4P(S)Ph2}]]
[6]
  higher cytotoxicity than cisplatin towards cervical cancer cells: approximately 27 fold
[7]
  higher cytotoxicity than cisplatin against prostate cancer cells: 3.5 fold
[8]
  higher cytotoxicity than cisplatin against bone cancer cells: 7.8 fold
[9]
  IC50 at 48 h: 380 ± 110 nM
[1]
  mouse death or body weight loss after treatment: no mouse death or body weight loss

## S=P(c1ccccc1)(c1ccccc1)c1cccc[c]1[Au][P+](c1ccccc1)(c1ccccc1)c1ccccc1 [Compound 2, [Au(PPh3){κC-2-C6H4P(S)Ph2}]]
[9]
  IC50 at 48 h: 5810 ± 350 nM

## CC(=O)OC[C@H]1O[C@@H]([S-])[C@H](OC(C)=O)[C@@H](OC(C)=O)[C@@H]1OC(C)=O.CCP(CC)CC.[Au+] [auranofin]
[2]
  IC50: 710 ± 60 nM
[3]
  IC50: 80 ± 10 nM
[10]
  IC50: 440 ± 50 nM
[4]
  IC50: 510 nM

## COc1cc([C@@H]2c3cc4c(cc3[C@@H](O[C@@H]3O[C@@H]5CO[C@@H](C)O[C@H]5[C@H](O)[C@H]3O)[C@H]3COC(=O)[C@H]23)OCO4)cc(OC)c1O [etoposide]
[5]
  effect on cell viability: no significant effect

— US12152047B2, “Anti-cancer gold compounds” (Royal Melbourne Institute of Technology, priority 2019, dated 2024)
